Experimental findings from patent publication US20230416329A1, “A PEPTIDE WITH DISULFIDE BONDS AND INHIBITORY ACTIVITY AGAINST SERINE PROTEASES, DERIVED HYBRID PEPTIDES THEREOF, AND USES THEREOF” (INSTITUTE OF MATERIA MEDICA , CHINESE ACADEMY OF MEDICAL …, priority 2020, published 2023) are described below.

In this assay the target is T1, bovine trypsin (Bos taurus, UniProt P00760).
T1 sequence (P00760 24-246): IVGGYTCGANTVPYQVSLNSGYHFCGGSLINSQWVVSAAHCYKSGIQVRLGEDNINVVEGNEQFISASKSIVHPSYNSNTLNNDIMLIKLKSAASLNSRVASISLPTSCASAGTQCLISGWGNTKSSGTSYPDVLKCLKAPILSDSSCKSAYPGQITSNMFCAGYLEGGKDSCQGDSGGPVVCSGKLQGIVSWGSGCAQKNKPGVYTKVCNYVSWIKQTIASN
The assay can be described thus: Trypsin inhibitory activity of peptides (BApNA hydrolysis, OD405; IC50, Ki, residual activity). To be noted: for IC50: trypsin 50 nM, BApNA 1.22 mM, read-out: IC50. The assay is classed as biochemical. The gist of the method:
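Trypsin (50 nM final) preincubated with peptides at 37 °C in 50 mM Tris-HCl pH 7.8, 20 mM CaCl2; BApNA added (1.22 mM final), 260 min at 37 °C, then OD405 read. Residual activity from enzyme-only and substrate-only controls; IC50 fitted and converted to Ki via Ki=IC50/(1+S/Km), Km measured separately for BApNA.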

Setting [1] is: read-out: inhibition constant (Ki) towards trypsin.
The mark [2] stands for this setting: Ki=IC50/(1+S/Km), Km 0.33 mM, read-out: Ki.

As usually defined, the Ki is the dissociation constant of the complex between target and ligand, obtained from inhibition or displacement. As a reminder, the IC50 is the concentration that gives 50% inhibition.

Read-outs that look alike come from different tables or passages of the source. Bridge positions count the residues as written; N and C are the ends. Square brackets hold non-standard residues; d marks the D form. Peptide text beside a SMILES is read from it. Nle = CCCC[C@H](N)C(=O)O

Take `CC[C@H](C)[C@@H]1NC(=O)[C@H](C)NC(=O)[C@@H]2CCCN2C(=O)[C@H]([C@@H](C)CC)NC(=O)[C@H](CO)NC(=O)[C@H](CCCCN)NC(=O)[C@H]([C@@H](C)O)NC(=O)[C@H](C)NC(=O)[C@H](CCCNC(=N)N)NC(=O)CNC(=O)[C@@H](N)CSSC[C@@H](C(=O)N[C@@H](Cc2ccccc2)C(=O)O)NC1=O` [BT10] (H-CGRATKSIPAICF-OH; disulfide 1-12): the “inhibitory activity against trypsin (in words)” value (from here on “inhibitory activity … (in words)”) is listed as “excellent trypsin inhibitory activities” and the IC50 stood at 110 nM. Further, for the setting “peptide 0.00098 μM”, the Residual trypsin activity worked out at 99.7 ± 0.6%. For the setting “peptide 0.00488 μM”, the Residual trypsin activity is listed as 99.8 ± 1.8%. Besides, the Residual trypsin activity (peptide 0.0098 μM) amounted to 95.5 ± 1.1%. The Residual trypsin activity (peptide 0.098 μM) turned out to be 55.6 ± 2.3%. For the setting “peptide 0.195 μM”, the Residual trypsin activity turned out to be 17.2 ± 3.4%. Moreover, the Residual trypsin activity (peptide 0.488 μM) was 1.0 ± 0.1%. For the same compound, where the note is “peptide 0.7317 μM”, the Residual trypsin activity worked out at 0.2 ± 0.1%. The Residual trypsin activity (peptide 0.98 μM) is −0.1 ± 0.1%. Also, the Ki under setting [1] was found to be 20 nM.

On to `CC[C@H](C)[C@@H]1NC(=O)[C@@H]2CCCN2C(=O)[C@@H]2CCCN2C(=O)[C@H]([C@@H](C)CC)NC(=O)[C@H](CO)NC(=O)[C@H](CCCCN)NC(=O)[C@H]([C@@H](C)O)NC(=O)[C@@H](NC(=O)[C@@H](N)CCCNC(=N)N)CSSC[C@@H](C(=O)N[C@@H](Cc2ccccc2)C(=O)O)NC1=O` [BT45] (H-RCTKSIPPICF-OH; disulfide 2-10; C-terminus assumed), for which the IC50 amounted to 30 nM. In addition, the Residual trypsin activity (peptide 0.000098 μM) turned out to be 99.3 ± 5.3%. The Residual trypsin activity (peptide 0.00098 μM) was found to be 104.3 ± 6.0%. Further, the Residual trypsin activity (peptide 0.0098 μM) is listed as 100.7 ± 5.0%. For the same compound, for the setting “peptide 0.02439 μM”, the Residual trypsin activity is 67.4 ± 2.6%. The Residual trypsin activity (peptide 0.0390 μM) was 42.7 ± 2.9%. The Residual trypsin activity (peptide 0.0488 μM) worked out at 27.3 ± 5.5%. Moreover, for the setting “peptide 0.07317 μM”, the Residual trypsin activity is 10.8 ± 1.6%. The Residual trypsin activity (peptide 0.098 μM) came to 6.3 ± 0.4%. Moreover, for the setting “peptide 0.98 μM”, the Residual trypsin activity stood at 0.4 ± 0.0%. In addition, the Residual trypsin activity (peptide 9.76 μM) is 0.0 ± 0.0%.

For the compound `CC[C@H](C)[C@@H]1NC(=O)[C@@H]2CCCN2C(=O)[C@@H]2CCCN2C(=O)[C@H]([C@@H](C)CC)NC(=O)[C@H](CO)NC(=O)[C@H](CCCCN)NC(=O)[C@H]([C@@H](C)O)NC(=O)CNC(=O)[C@H](CCCCN)NC(=O)[C@H](C)NC(=O)CNC(=O)[C@@H](N)CSSC[C@@H](C(=O)N[C@@H](Cc2ccccc2)C(=O)N2CCC[C@H]2C(=O)N[C@@H](CC(=O)O)C(=O)O)NC1=O` [BT2] (H-CGAKGTKSIPPICFPD-OH; disulfide 1-13; N-terminus and C-terminus assumed), the Residual trypsin activity by setting is: (peptide 0.488 μM) 94.6 ± 1.7%; (peptide 0.98 μM) 83.6 ± 5.2%; (peptide 1.95 μM) 72.9 ± 6.1%; (peptide 2.93 μM) 51.2 ± 9.0%; (peptide 4.88 μM) 12.9 ± 1.3%; (peptide 9.76 μM) 4.2 ± 0.4%. In addition, the Residual trypsin activity reads like this: (peptide 19.51 μM) 3.7 ± 0.5%; (peptide 39.02 μM) 0.5 ± 0.1%. Further, the inhibitory constant (Ki) under setting [1] was found to be 650 nM.

`CC[C@H](C)[C@@H]1NC(=O)[C@@H]2CCCN2C(=O)[C@@H]2CCCN2C(=O)[C@H]([C@@H](C)CC)NC(=O)[C@H](CO)NC(=O)[C@H](CCCNC(=N)N)NC(=O)[C@H]([C@@H](C)O)NC(=O)[C@H](C)NC(=O)[C@H](CCCNC(=N)N)NC(=O)CNC(=O)[C@@H](N)CSSC[C@@H](C(=O)N[C@@H](Cc2ccccc2)C(=O)O)NC1=O` [BT17] (H-CGRATRSIPPICF-OH; disulfide 1-12; C-terminus assumed): the “inhibitory activity … (in words)” value was “excellent trypsin inhibitory activities”. Further, the Ki under setting [2] amounted to 120 nM. Further, the Residual trypsin activity (peptide 0.00098 μM) amounted to 97.9 ± 0.8%. In addition, the Residual trypsin activity (peptide 0.0098 μM) came out at 97.5 ± 0.7%. Besides, the Residual trypsin activity (peptide 0.098 μM) was found to be 93.6 ± 4.5%. In addition, under “peptide 0.488 μM”, the Residual trypsin activity is reported as 61.9 ± 3.0%. Besides, for the setting “peptide 0.7317 μM”, the Residual trypsin activity is 30.0 ± 5.3%. The Residual trypsin activity (peptide 0.98 μM) is 1.5 ± 0.3%. Also, under “peptide 9.76 μM”, the Residual trypsin activity is 0.1 ± 0.0%. Further, the Residual trypsin activity (peptide 97.56 μM) turned out to be 0.1 ± 0.0%. The “decrease in inhibitory activity compared to BT9” value (trypsin) is ~12 fold.

Turning to `CC[C@H](C)[C@@H]1NC(=O)[C@@H](N)CSSC[C@@H](C(=O)N[C@@H](Cc2ccccc2)C(=O)O)NC(=O)[C@H]([C@@H](C)CC)NC(=O)[C@@H]2CCCN2C(=O)[C@@H]2CCCN2C(=O)[C@H]([C@@H](C)CC)NC(=O)[C@H](CO)NC(=O)[C@H](CCCCN)NC(=O)[C@H]([C@@H](C)O)NC(=O)[C@H](C)NC(=O)[C@H](CCCNC(=N)N)NC1=O` [BT73] (H-CIRATKSIPPICF-OH; disulfide 1-12; N-terminus and C-terminus assumed), the IC50 turned out to be 120 nM. Besides, under setting [2], the Ki stood at 30 nM.

On to `CC[C@H](C)[C@@H]1NC(=O)[C@@H]2CCCN2C(=O)[C@@H]2CCCN2C(=O)[C@H]([C@@H](C)CC)NC(=O)[C@H](CO)NC(=O)[C@H](CCCCN)NC(=O)[C@H]([C@@H](C)O)NC(=O)[C@H](Cc2ccccc2)NC(=O)[C@H](CCCNC(=N)N)NC(=O)CNC(=O)[C@@H](N)CSSC[C@@H](C(=O)N[C@@H](Cc2ccccc2)C(=O)O)NC1=O` [BT52] (H-CGRFTKSIPPICF-OH; disulfide 1-12; N-terminus and C-terminus assumed), for which the IC50 was 130 nM. For the same compound, the Ki under setting [2] was 30 nM.

On to `CC[C@H](C)[C@@H]1NC(=O)[C@H](CO)NC(=O)[C@H](CCCCN)NC(=O)[C@H]([C@@H](C)O)NC(=O)[C@H](Cc2c[nH]c3ccccc23)NC(=O)CNC(=O)[C@@H](N)CSSC[C@@H](C(=O)O)NC(=O)[C@@H]2CCCN2C(=O)[C@H](CCCCN)NC(=O)[C@@H]2CCCN2C(=O)[C@@H]2CCCN2C1=O` [BT37] (H-CGWTKSIPPKPC-OH; disulfide 1-12), for which the IC50 was > 50000 nM.

For `CC[C@H](C)[C@@H]1NC(=O)[C@@H]2CCCN2C(=O)[C@@H]2CCCN2C(=O)[C@H]([C@@H](C)CC)NC(=O)[C@H](CO)NC(=O)[C@H](CCCCN)NC(=O)[C@H]([C@@H](C)O)NC(=O)[C@H](C)NC(=O)[C@H](CCCNC(=N)N)NC(=O)[C@H](CC(C)C)NC(=O)[C@@H](N)CSSC[C@@H](C(=O)N[C@@H](Cc2ccccc2)C(=O)O)NC1=O` [BT72] (H-CLRATKSIPPICF-OH; disulfide 1-12; N-terminus and C-terminus assumed), the IC50 is 130 nM. The Ki under setting [2] turned out to be 30 nM.

Regarding `CC[C@H](C)[C@@H]1NC(=O)[C@@H]2CCCN2C(=O)[C@@H]2CCCN2C(=O)[C@H]([C@@H](C)CC)NC(=O)[C@H](CO)NC(=O)[C@H](CCCCN)NC(=O)[C@H]([C@@H](C)O)NC(=O)[C@H](C)NC(=O)[C@H](CCCNC(=N)N)NC(=O)CNC(=O)[C@@H](N)CSSC[C@@H](C(=O)O)NC1=O` [BT8] (H-CGRATKSIPPIC-OH; disulfide 1-12 (inferred); N-terminus and C-terminus assumed), the IC50 was > 50000 nM.

On to `CC[C@H](C)[C@@H]1NC(=O)[C@@H]2CCCN2C(=O)[C@@H]2CCCN2C(=O)[C@H]([C@@H](C)CC)NC(=O)[C@H](CO)NC(=O)[C@H](CCCCN)NC(=O)[C@H]([C@@H](C)O)NC(=O)[C@H](Cc2c[nH]c3ccccc23)NC(=O)[C@H](CCCNC(=N)N)NC(=O)CNC(=O)[C@@H](N)CSSC[C@@H](C(=O)N[C@@H](Cc2ccccc2)C(=O)O)NC1=O` [BT57] (H-CGRWTKSIPPICF-OH; disulfide 1-12; C-terminus assumed), for which the “inhibitory activity … (in words)” value is recorded as “excellent trypsin inhibitory activities” and the IC50 is 130 nM. Besides, under setting [2], the Ki amounted to 30 nM.

As to `CCCC[C@@H]1NC(=O)[C@H](CO)NC(=O)[C@H](CCCCN)NC(=O)[C@H]([C@@H](C)O)NC(=O)[C@H](C)NC(=O)[C@H](CCCNC(=N)N)NC(=O)CNC(=O)[C@@H](N)CSSC[C@@H](C(=O)N[C@@H](Cc2ccccc2)C(=O)O)NC(=O)[C@H]([C@@H](C)CC)NC(=O)[C@@H]2CCCN2C(=O)[C@@H]2CCCN2C1=O` [BT28] (H-CGRATKS[Nle]PPICF-OH; disulfide 1-12; C-terminus assumed), the “inhibitory activity … (in words)” value is on record as “reduced their anti-trypsin activities” and the half-inhibitory concentration (IC50) was 290 nM. Further, the Ki under setting [2] was 60 nM. Besides, the “inhibitory activity … (in words)” value (listed as SEQ ID NO: 28) is reported as “excellent trypsin inhibitory activities”. In addition, where the note is “peptide 0.00098 μM”, the Residual trypsin activity came out at 102.3 ± 0.7%. Further, the Residual trypsin activity (peptide 0.0098 μM) stood at 101.8 ± 0.1%. Besides, where the note is “peptide 0.098 μM”, the Residual trypsin activity worked out at 92.2 ± 5.5%. The Residual trypsin activity (peptide 0.195 μM) was found to be 77.6 ± 8.3%. Also, the Residual trypsin activity (peptide 0.293 μM) is 52.7 ± 5.9%. Also, the Residual trypsin activity (peptide 0.390 μM) is on record as 16.7 ± 3.7%. Moreover, the Residual trypsin activity (peptide 0.98 μM) was 0.7 ± 0.0%. The Residual trypsin activity (peptide 9.76 μM) was determined as 0.1 ± 0.0%. Moreover, the Residual trypsin activity (peptide 97.56 μM) is 0.0 ± 0.0%.

Take `CC[C@H](C)[C@@H]1NC(=O)[C@H](CCCCN)NC(=O)[C@@H]2CCCN2C(=O)[C@@H](NC(=O)[C@H](CCCNC(=N)N)NC(=O)CN)CSSC[C@@H](C(=O)N[C@@H](Cc2ccccc2)C(=O)O)NC(=O)[C@H](CCCCN)NC(=O)[C@H](CCCCN)NC(=O)[C@H](CC(C)C)NC1=O` [BT41] (H-GRCPKILKKCF-OH; disulfide 3-10): the IC50 is > 50000 nM.
